Here are results for one compound from paper PMC8584989 (International Journal of Molecular Sciences, 2021).

Read-outs that look alike come from different tables or passages of the source.

A word on the IC50: it is the concentration at which inhibition is half-maximal.

The nature of series [1]: XTT proliferation / drug combination assay. To be noted: human.
A further series deals with ABCB1 (Homo sapiens, UniProt P08183). Put plainly: Inhibitory accumulation assay in MDCKII-ABCB1 cells. In kind it is cell-based. The protocol:
Accumulation assays were performed as described previously. […] The daunorubicin and mitoxantrone accumulation assays were performed in above mentioned cell lines and were also adopted to primary NSCLC cultures. […] Cells were incubated up to 70-80% confluence for approximately 24 h. […] The cells there trypsinized on ice, resuspended with 2% FBS in cold PBS solution and then fluorescence was detected using flow cytometer (BD FACSCanto II, Allschwil, Switzerland). […] For data presentation, the ratios of relative fluorescence units (RFUs) from treated samples to RFUs from vehicle-treated (control) cells were computed generating “relative substrate accumulation”.

Series [2] in a line: MTT proliferation / drug combination assay. Particulars: human.
Series [3] deals with KB drug resistant cell lines. Particulars: in vitro KB drug resistant cell lines; cited from earlier work.
In a further series the target is T1, ABCG2 (Homo sapiens, UniProt Q9UNQ0).
T1 sequence (Q9UNQ0 1-655): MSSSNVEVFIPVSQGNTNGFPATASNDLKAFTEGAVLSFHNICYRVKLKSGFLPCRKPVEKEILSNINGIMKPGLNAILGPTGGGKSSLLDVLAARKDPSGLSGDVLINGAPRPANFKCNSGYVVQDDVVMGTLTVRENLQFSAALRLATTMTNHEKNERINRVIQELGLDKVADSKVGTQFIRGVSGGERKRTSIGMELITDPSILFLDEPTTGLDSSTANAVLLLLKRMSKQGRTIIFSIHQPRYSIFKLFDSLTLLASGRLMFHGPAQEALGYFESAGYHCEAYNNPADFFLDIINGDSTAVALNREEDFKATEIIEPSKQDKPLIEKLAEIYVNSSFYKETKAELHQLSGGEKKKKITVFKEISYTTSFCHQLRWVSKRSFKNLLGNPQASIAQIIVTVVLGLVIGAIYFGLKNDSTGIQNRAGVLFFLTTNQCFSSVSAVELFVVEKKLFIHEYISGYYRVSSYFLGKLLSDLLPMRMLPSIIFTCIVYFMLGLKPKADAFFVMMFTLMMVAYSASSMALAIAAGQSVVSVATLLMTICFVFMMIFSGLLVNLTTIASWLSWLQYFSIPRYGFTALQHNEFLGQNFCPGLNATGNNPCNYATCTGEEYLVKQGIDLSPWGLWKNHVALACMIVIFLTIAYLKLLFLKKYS
Put plainly: MDCKII cellular monolayer transport assay. In kind it is in vitro ADME. Particulars: 1 µM tepotinib, 4 h. The protocol: This assay was performed as described previously. […] The Transwells were incubated until full confluence for 7 days with media replacement every 2 days. Prior addition of tested drugs, inserts were washed with 1 × PBS on both apical and basal sides. […] Samples were then collected from the acceptor chambers at 0.5, 1, 2 and 4 h intervals. Cellular monolayers’ integrity was verified using fluorescein isothiocyanate-labeled dextran (MW = 40 kDa) accepting leakage up to 5% per hour.

Series [4] has as its system patient-derived NSCLC explants. The experiment in a line: Daunorubicin and mitoxantrone accumulation in primary NSCLC explants. In kind it is cell-based, human. Particulars: six primary cultures; predominantly those with higher transporters' expression levels. From the text: Tumor biopsies were donated by NSCLC patients at the Department of Cardiac Surgery, University Hospital Hradec Králové following written informed consent approved by the University Hospital Ethics Committee (study no. 202002 […]). Subjects' characteristics are shown in Supplementary Materials (Table S1). The NSCLC samples were collected immediately after the lung lobectomy and excision of tumor by the pathologist, which was followed by the isolation of cancer cells using a modified procedure based on previously published protocols. The tumor tissues were minced in small pieces around 2-5 mm in diameter using a scalpel. To liberate the cells from tissues, the minced pieces were transferred into the prewarmed 0.1% collagenase in 1 × MEM and placed in the water bath for 30 min. Following the incubation, BSA in MEM was added and cells were sieved through a 40 μm-sized cell strainer. Then, the solution was centrifuged at 200× g for 5 min. The pellet was resuspended with a BSA solution in MEM. […] The cells there trypsinized on ice, resuspended with 2% FBS in cold PBS solution and then fluorescence was detected using flow cytometer (BD FACSCanto II, Allschwil, Switzerland). […] For data presentation, the ratios of relative fluorescence units (RFUs) from treated samples to RFUs from vehicle-treated (control) cells were computed generating “relative substrate accumulation”.

For another series, the system named is A431-ABCC1 cells. Put plainly: MTT proliferation assay (comparative viability). To be noted: single drug, 48 h. In kind it is cell-based. The protocol:
These colorimetric assays were used in various studies presented in this paper (prior induction studies, MDR reversal experiments and comparative viability assays) and were performed as reported previously. […] In MTT experiments, cells were seeded on a 96-well culture plate at densities (in number of cells/well) of 1.3 × 10^4 for MDCKII-par, MDCKII-ABCB1 and MDCKII-ABCG2; 1.2 × 10^4 for A431-par, A431-ABCB1, A431-ABCG2 and A431-ABCC1; 1.2 × 10^4 for NCI-H1299; 1.0 × 10^4 for A459; 2.0 × 10^4 for Caco-2; 5.0 × 10^4 for LS174T; and 1.0 × 10^4 for primary NSCLC explants. On the other hand, for XTT cells were seeded with densities 2.0 × 10^4 for HL60-par, HL60-ABCB1, HL60-ABCG2 and HL60-ABCC1 cells/well on 96-well plates. […] Following 48 h incubation with drugs, Opti-MEM solutions of MTT or XTT (1 mg/mL) with phenazine methosulfate solution (7.50 μg/mL; only for XTT) was added and the cells were incubated for 1 h with the exception of HL60s that were incubated for 5 h.
(In general: Tetrazolium dyes change colour on reduction, which living cells bring about.)

ABCB1, sequence (P08183 whole entry): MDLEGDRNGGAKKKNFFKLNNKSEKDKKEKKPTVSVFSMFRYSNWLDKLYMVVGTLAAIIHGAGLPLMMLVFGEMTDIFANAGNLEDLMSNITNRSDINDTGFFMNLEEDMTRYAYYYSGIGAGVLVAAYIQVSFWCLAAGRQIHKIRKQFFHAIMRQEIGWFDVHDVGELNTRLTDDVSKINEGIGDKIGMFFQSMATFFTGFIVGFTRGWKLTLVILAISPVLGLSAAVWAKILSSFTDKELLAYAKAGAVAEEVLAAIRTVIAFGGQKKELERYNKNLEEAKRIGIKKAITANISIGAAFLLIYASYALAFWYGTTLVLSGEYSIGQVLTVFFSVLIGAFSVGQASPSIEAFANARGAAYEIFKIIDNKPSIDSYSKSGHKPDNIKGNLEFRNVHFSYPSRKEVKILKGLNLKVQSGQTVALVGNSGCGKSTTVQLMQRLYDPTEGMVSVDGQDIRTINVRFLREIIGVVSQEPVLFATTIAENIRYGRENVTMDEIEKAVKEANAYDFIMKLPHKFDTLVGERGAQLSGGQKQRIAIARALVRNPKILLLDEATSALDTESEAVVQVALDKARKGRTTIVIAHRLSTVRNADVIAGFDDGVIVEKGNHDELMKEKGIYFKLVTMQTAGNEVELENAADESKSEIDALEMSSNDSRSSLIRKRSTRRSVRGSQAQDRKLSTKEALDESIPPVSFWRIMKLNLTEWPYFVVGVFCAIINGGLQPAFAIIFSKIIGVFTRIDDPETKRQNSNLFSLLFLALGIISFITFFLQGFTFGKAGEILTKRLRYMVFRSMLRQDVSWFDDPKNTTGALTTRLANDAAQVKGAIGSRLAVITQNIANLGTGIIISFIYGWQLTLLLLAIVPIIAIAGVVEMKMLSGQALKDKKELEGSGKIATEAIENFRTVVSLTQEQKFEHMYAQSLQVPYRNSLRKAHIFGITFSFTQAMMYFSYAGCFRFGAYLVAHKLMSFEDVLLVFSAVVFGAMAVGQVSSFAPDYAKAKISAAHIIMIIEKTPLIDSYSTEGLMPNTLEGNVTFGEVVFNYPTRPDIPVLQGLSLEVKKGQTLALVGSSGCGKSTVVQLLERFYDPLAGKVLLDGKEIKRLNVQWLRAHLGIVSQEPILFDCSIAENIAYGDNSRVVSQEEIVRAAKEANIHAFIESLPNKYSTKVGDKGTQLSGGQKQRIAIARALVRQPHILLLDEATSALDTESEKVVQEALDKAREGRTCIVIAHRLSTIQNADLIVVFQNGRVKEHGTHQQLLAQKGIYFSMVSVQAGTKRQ

As for `CN1CCC(COc2cnc(-c3cccc(Cn4nc(-c5cccc(C#N)c5)ccc4=O)c3)nc2)CC1` [tepotinib, Tepotinib], the IC50 at 48 h in series [1] was 19.6 µM; in series [2], 16.4 µM. In addition, the IC50 at ABCB1 (2 µM daunorubicin, 1 h, read-out: IC50, relative daunorubicin accumulation) came to 1.28 µM; at ABCB1 (8 µM hoechst 33342, read-out: IC50, relative Hoechst 33342 accumulation), 3.15 µM; in the series on A431-ABCC1 cells, 16.2 µM. Moreover, in series [3], the “Effect on anticancer effect of paclitaxel and vincristine” value was “potentiate the anticancer effect of paclitaxel and vincristine”. In addition, on ABCG2, the “Substrate affinity for ABCG2” value was “No substrate affinities”. In addition, in series [4], the “Effect on accumulation of mitoxantrone and daunorubicin” value is on record as “significantly increased the accumulation of model anticancer drugs in some of the primary samples”.
